Experimental data published in article PMC4710668, “Bioactivation of food genotoxicants 5-hydroxymethylfurfural and furfuryl alcohol by sulfotransferases from human, mouse and rat: a comparative study” (Archives of Toxicology, 2014).
Several values for one entry are separate records, joined by “and”; a condition that tells them apart may be missing. Equal entries are not always repeated. Marks after values point to notes of the source that are not given here.

Columns and labels:
Test in all cases: FFA sulfoconjugation assay (N6-MF-A formation with adenosine as scavenger)
Type in all cases: biochemical
[1] = target: T1, rSult1a1 (Rattus norvegicus, UniProt P17988); conditions: 1 mM FFA
T1 construct: made in house; host or cells: Salmonella typhimurium TA1538 (cytosolic fraction, enzyme not purified)
T1 sequence (P17988 whole entry): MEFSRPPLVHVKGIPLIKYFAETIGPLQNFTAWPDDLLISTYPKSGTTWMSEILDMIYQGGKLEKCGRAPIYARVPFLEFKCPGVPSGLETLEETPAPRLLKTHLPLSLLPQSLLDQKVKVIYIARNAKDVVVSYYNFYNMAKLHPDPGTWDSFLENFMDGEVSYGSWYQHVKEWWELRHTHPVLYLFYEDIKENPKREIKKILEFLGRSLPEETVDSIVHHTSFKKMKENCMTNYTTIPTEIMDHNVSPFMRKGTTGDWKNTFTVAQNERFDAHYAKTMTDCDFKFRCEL
Method in brief: (§1)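 SULT-containing cytosols from transgenic S. typhimurium TA1538 were incubated with FFA and 10 mM adenosine as nucleophilic scavenger for 20 min at 37 °C. N6-MF-A adducts were quantified by isotope-dilution UPLC-MS/MS ([15N5]N6-MF-A internal standard). Adduct formed in SULT-deficient cytosol controls was subtracted.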

[2] = target: T2, mSult1b1 (Mus musculus, UniProt Q9QWG7)
T2 construct: made in house; host or cells: Salmonella typhimurium TA1538 (cytosolic fraction, enzyme not purified)
T2 sequence (Q9QWG7 whole entry): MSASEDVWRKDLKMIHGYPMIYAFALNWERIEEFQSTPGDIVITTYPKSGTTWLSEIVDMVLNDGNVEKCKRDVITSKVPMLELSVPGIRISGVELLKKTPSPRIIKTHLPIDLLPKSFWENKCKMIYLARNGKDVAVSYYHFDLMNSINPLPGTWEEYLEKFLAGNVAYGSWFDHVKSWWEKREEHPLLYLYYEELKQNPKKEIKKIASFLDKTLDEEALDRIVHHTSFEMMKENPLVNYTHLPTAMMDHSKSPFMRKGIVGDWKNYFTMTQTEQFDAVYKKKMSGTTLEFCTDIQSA
Method in brief: as §1

[3] = target: T3, hSULT1C1 (Homo sapiens, UniProt O00338)
T3 construct: made in house; host or cells: Salmonella typhimurium TA1538 (cytosolic fraction, not purified)
T3 sequence (O00338 whole entry): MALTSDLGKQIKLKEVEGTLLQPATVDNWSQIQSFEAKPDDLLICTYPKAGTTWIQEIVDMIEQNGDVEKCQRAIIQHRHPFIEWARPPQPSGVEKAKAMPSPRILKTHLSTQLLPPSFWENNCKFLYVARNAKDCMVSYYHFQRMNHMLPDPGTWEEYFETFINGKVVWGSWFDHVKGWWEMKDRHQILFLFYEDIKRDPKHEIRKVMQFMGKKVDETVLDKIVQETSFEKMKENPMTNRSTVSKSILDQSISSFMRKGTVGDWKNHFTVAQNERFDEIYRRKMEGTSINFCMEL
Method in brief: as §1

[4] = target: T4, hSULT1C3 (Homo sapiens, UniProt Q6IMI6)
T4 construct: made in house; host or cells: Salmonella typhimurium TA1538 (cytosolic fraction, not purified)
T4 sequence (Q6IMI6 whole entry): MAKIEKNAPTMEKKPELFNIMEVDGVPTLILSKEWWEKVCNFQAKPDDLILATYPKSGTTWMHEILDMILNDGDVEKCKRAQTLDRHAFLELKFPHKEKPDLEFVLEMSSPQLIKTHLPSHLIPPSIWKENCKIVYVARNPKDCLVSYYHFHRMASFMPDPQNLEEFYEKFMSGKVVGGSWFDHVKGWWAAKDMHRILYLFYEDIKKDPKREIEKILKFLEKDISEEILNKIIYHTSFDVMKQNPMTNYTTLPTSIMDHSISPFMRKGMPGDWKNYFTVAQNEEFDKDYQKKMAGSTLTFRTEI
Method in brief: as §1

[5] = target: T5, rSult1b1 (Rattus norvegicus, UniProt P52847)
T5 construct: made in house; host or cells: Salmonella typhimurium TA1538 (cytosolic fraction, enzyme not purified)
T5 sequence (P52847 whole entry): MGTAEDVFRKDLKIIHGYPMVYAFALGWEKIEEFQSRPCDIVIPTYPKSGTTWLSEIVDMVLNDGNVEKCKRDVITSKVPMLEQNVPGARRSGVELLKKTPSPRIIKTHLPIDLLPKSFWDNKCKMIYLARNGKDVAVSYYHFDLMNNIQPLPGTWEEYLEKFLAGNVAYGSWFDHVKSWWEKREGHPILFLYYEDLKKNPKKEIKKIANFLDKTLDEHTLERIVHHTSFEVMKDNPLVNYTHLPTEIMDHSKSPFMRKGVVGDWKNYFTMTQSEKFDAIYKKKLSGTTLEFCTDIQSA
Method in brief: as §1

[6] = target: T6, rSult1c2 (Rattus norvegicus, UniProt Q9WUW8)
T6 construct: made in house; host or cells: Salmonella typhimurium TA1538 (cytosolic fraction, enzyme not purified)
T6 sequence (Q9WUW8 whole entry): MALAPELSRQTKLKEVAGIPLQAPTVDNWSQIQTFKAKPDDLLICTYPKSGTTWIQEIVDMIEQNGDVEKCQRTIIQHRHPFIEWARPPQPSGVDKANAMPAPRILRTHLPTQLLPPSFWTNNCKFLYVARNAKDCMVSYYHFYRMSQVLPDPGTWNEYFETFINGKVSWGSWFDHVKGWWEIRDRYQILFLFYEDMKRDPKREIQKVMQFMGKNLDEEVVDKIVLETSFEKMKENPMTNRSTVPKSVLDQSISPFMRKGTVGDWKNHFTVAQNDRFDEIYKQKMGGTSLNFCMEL
Method in brief: as §1

[7] = target: T7, rSult1c1 (Rattus norvegicus, UniProt P50237)
T7 construct: made in house; host or cells: Salmonella typhimurium TA1538 (cytosolic fraction, enzyme not purified)
T7 sequence (P50237 whole entry): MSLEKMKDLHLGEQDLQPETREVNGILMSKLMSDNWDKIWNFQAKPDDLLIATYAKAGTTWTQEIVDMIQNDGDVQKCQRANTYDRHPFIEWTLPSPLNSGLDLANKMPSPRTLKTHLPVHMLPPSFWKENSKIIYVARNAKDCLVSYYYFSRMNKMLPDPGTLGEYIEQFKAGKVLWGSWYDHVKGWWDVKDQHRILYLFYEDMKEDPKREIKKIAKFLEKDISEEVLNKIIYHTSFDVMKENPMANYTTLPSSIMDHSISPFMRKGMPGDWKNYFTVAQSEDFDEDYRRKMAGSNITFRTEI
Method in brief: as §1

[8] = target: T8, mSult2a2 (Mus musculus, UniProt P50236)
T8 construct: made in house; host or cells: Salmonella typhimurium TA1538 (cytosolic fraction, enzyme not purified)
T8 sequence (P50236 1-285): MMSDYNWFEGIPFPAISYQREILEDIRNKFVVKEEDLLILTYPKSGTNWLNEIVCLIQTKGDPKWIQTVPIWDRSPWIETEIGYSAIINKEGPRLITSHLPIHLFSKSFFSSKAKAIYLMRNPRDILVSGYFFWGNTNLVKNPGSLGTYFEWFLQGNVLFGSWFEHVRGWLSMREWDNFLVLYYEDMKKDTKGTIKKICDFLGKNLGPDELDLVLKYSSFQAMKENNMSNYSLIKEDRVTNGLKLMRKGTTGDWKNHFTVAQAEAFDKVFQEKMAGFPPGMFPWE
Method in brief: as §1

[9] = target: T9, hSULT1A1 (Homo sapiens, UniProt P50225)
T9 construct: made in house; host or cells: Salmonella typhimurium TA1538 (cytosolic fraction, not purified)
T9 sequence (P50225 whole entry): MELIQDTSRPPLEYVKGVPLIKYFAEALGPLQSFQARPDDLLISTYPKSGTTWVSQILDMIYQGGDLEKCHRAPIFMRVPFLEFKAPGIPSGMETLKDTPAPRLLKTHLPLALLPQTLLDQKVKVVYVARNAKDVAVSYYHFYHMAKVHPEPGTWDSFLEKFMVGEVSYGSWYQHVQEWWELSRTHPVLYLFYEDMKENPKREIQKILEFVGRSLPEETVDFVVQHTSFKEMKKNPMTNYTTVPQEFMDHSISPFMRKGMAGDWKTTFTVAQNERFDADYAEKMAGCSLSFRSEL
Method in brief: as §1

## OCc1ccco1 [FFA, furfuryl alcohol]
[1]
  Rate of N6-MF-A formation: 31.8 ± 0.8 fmol N ^6-MF-A/mg/min
[1]; corrected by actual SULT concentration in the cytosolic preparation
  Rate of N6-MF-A formation (corr.): 24,400 fmol N ^6-MF-A/mg/min and 24,400 ± 600 fmol N ^6-MF-A/mg/min
[1]; corrected rates
  ratio of N6-MF-A formation, rSult1a1 vs rSult1b1: ~71 fold
  ratio of N6-MF-A formation, rSult1a1 vs rSult1c1: about 6 fold
[2]; 0.1 mM FFA
  Rate of N6-MF-A formation: <18 fmol N ^6-MF-A/mg/min
[2]; 10 mM FFA
  Rate of N6-MF-A formation: 74.3 ± 1.6 fmol N ^6-MF-A/mg/min
[3]; 0.1 mM FFA
  Rate of N6-MF-A formation: <18 fmol N ^6-MF-A/mg/min
[3]; 1 mM FFA
  Rate of N6-MF-A formation: <20 fmol N ^6-MF-A/mg/min
[3]; 10 mM FFA
  Rate of N6-MF-A formation: <44 fmol N ^6-MF-A/mg/min
[4]; 0.1 mM FFA
  Rate of N6-MF-A formation: <18 fmol N ^6-MF-A/mg/min
[4]; 1 mM FFA
  Rate of N6-MF-A formation: 61.8 ± 0.3 fmol N ^6-MF-A/mg/min
[4]; 1 mM FFA, corrected by SULT concentration reported in Meinl et al. [2006]
  Rate of N6-MF-A formation (corr.): 3,090 ± 10^b fmol N ^6-MF-A/mg/min
[4]; 10 mM FFA
  Rate of N6-MF-A formation: 248 ± 3 fmol N ^6-MF-A/mg/min
[5]; 0.1 mM FFA
  Rate of N6-MF-A formation: <18 fmol N ^6-MF-A/mg/min
[5]; 1 mM FFA
  Rate of N6-MF-A formation: 34.3 ± 1.0 fmol N ^6-MF-A/mg/min
[5]; 10 mM FFA
  Rate of N6-MF-A formation: 314 ± 4 fmol N ^6-MF-A/mg/min
[6]; 0.1 mM FFA
  Rate of N6-MF-A formation: <18 fmol N ^6-MF-A/mg/min
[6]; 1 mM FFA
  Rate of N6-MF-A formation: <20 fmol N ^6-MF-A/mg/min
[6]; 10 mM FFA
  Rate of N6-MF-A formation: <44 fmol N ^6-MF-A/mg/min
[7]; 0.1 mM FFA
  Rate of N6-MF-A formation: <18 fmol N ^6-MF-A/mg/min
[7]; 1 mM FFA
  Rate of N6-MF-A formation: 97.8 ± 2.3 fmol N ^6-MF-A/mg/min
[7]; 10 mM FFA
  Rate of N6-MF-A formation: 492 ± 13 fmol N ^6-MF-A/mg/min
[8]; 0.1 mM FFA
  Rate of N6-MF-A formation: <18 fmol N ^6-MF-A/mg/min
[8]; 1 mM FFA
  Rate of N6-MF-A formation: <20 fmol N ^6-MF-A/mg/min
[8]; 10 mM FFA
  Rate of N6-MF-A formation: 216 ± 3 fmol N ^6-MF-A/mg/min
[9]; 0.1 mM FFA
  Rate of N6-MF-A formation: 73.5 ± 1.1 fmol N ^6-MF-A/mg/min
[9]; 1 mM FFA
  Rate of N6-MF-A formation: 575 ± 2 fmol N ^6-MF-A/mg/min
[9]; 1 mM FFA, corrected by actual SULT concentration in the cytosolic preparation
  Rate of N6-MF-A formation (corr.): 57,500 fmol N ^6-MF-A/mg/min and 57,500 ± 200 fmol N ^6-MF-A/mg/min
[9]; 1 mM FFA, corrected rates
  ratio of N6-MF-A formation rate, hSULT1A1 vs hSULT1A2, 1A3, 1B1, 1C3 and 2A1: 11- to 30 fold
[9]; 10 mM FFA
  Rate of N6-MF-A formation: 931 ± 5 fmol N ^6-MF-A/mg/min
